Experiment [1] can be described thus: Bronchodilator responsiveness (FEV1 reversal with albuterol). Type of experiment: in vivo, human. An excerpt:
(§1) Study subjects. Thirty-nine adult asthmatics were enrolled in this study. […] Patients completed asthma questionnaires (ACQ) to assess their asthma control. […] Twelve healthy nonatopic subjects underwent bronchoscopy as controls. Smokers were excluded from participation in this study. Informed consent was obtained from all study participants before enrollment in this study.
26 adult asthma patients were enrolled. Sample collection involved assessment of patients with a clinical history of asthma, airflow limitation (baseline FEV1≤85% predicted) and either airway hyperresponsiveness (PC20 methacholine<8 mg/ml) or bronchodilator responsiveness (>12% improvement in FEV1% predicted after […] metered-dose inhaler albuterol).

Experiment [2] deals with peripheral blood monocytes from asthmatics. Description: Effects of inhibitors on MKP-1 and IL-8 mRNA induction by H. parainfluenzae and on cellular response to corticosteroids (real time PCR). To be noted: for cellular sensitivity to corticosteroids in vitro (MKP-1 mRNA induction by DEX) in the presence of H. parainfluenzae: inhibitor 1 h, bacteria 15 min, then 3 h DEX, FIG. 4C; for MKP-1 mRNA induction by H. parainfluenzae / IL-8 mRNA induction by H. parainfluenzae: monocytes preincubated with inhibitor 1 h (TAK1 inhibitor 2 μM, others 10 μM); for MKP-1 mRNA induction by H. parainfluenzae: bacteria to cell ratio 1:1, FIG. 4A; for IL-8 mRNA induction by H. parainfluenzae: bacteria to cell ratio 1:1, FIG. 4B. Type of experiment: cell-based, human. As for the experimental part:
Cell culture and treatment. Peripheral blood mononuclear cells (PBMC) were isolated from asthma patients. Monocytes were prepared by negative selection using Human Monocyte Isolation Kit II (Milteniyi Biotech Inc., Auburn, CA). BAL macrophages were enriched by 3 h plastic adhesion. Cell purity was ≥95%. In all experiments, monocytes and BAL macrophages were cultured in the X-VIVO™ 15 serum free medium overnight; medium was replaced with X-VIVO™ 15 medium without antibiotics prior to addition of bacteria. Bacteria were added to 10^6 cells/ml in culture at 0.1 or 1 bacteria per cell.
In vitro response to corticosteroids in the presence of bacteria. 0.5×10^6 monocytes or 2.5×10^5 BAL macrophages per condition were cultured overnight in X-VIVO™ 15 media, treated with 0.1 to 1 bacteria per cell or 10 ng/ml of E. coli strain 0111: B4 LPS (Sigma-Aldrich Corp) for 15 min and stimulated with 10^−6 M dexamethasone (DEX) for an additional 3 h still in the presence of bacteria. Following incubation the cells were preserved in RLT buffer (Qiagen, Inc., Valencia, CA). RNA was extracted using RNAEASYR Mini kit (Qiagen), and analyzed by real-time PCR as previously described (Goleva E et al., J Allergy Clin Immunol 2012; 129: 687-93e1) for the expression of corticosteroid-regulated targets mitogen activated kinase phosphatase 1 (MKP-1), and IL-8. 18s RNA was measured as a house keeping gene. All primers were purchased from Applied Biosystems (Life Technologies Corporation, Carlsbad, CA). Standard curves for gene targets were generated using the fluorescent data from two-fold serial dilutions of total RNA of the highest expression sample. Quantities of each target gene in test samples were normalized to the corresponding levels of the housekeeping gene (18s RNA) in each sample. Fold induction and fold suppression by DEX of selected gene targets was calculated for cells cultured in media, with LPS or with bacteria.
The effects of inhibitors on cellular response to corticosteroids. To examine whether MAPK inhibition or transforming growth factor beta associated kinase 1 (TAK1) inhibition reverses the corticosteroid resistant response to pathogenic microbes, monocytes were pretreated with either TAK1 inhibitor (5Z)-7-Oxozeaenol, Curvularia sp. (Calbiochem, EMD Serono, Inc., Rockland, MA) (2 μM), the p38 inhibitor, SB203580 (10 μM) (Calbiochem) or the cocktail of the three MAPK inhibitors (SB203580, p38 inhibitor; PD98059, MEK1/ERK inhibitor (Invitrogen, Life Technologies, Grand Island, NY) and SP600125, JNK inhibitor (InVivogen, San Diego, CA), all at 10 μM) for 1 h prior to stimulation with bacteria and cellular response to corticosteroids was evaluated by real time PCR as described above. To assess the efficacy of inhibitors on suppression of cell activation induced by bacteria cells were pretreated with inhibitors for 1 h or cultured in media, stimulated with H. parainfluenzae for 15 min. Protein lysates were prepared as described above. ERK and hsp27 phosphorylation as downstream targets for TAK1 and p38 MAPK activation, respectively, were assessed by Western blot as described in (Zhang Y et al., J Immunol 2012, in press; Li L B et al., J Allergy Clin Immunol 2004; 114: 1059-69; Zhang Y et al., J Biol Chem 2009; 284: 24542-52).
Toll-like receptor (TLR) engagement by bacteria is the major pathway of cell activation by bacteria (Akira S, Nat Rev Immunol 2004; 4: 499-511). TAK1 phosphorylation represents a key downstream TLR signaling branching point that controls both MAPK and NFKB pathway activation in the cells (Liew F Y et al., Nat Rev Immunol 2005; 5: 446-58). To address the role of TLR signaling pathways in MAPK and TAK1 activation by H. parainfluenzae and the alteration of cellular response to corticosteroids, asthmatic peripheral blood monocytes were preincubated with/without TAK1 and MAPK inhibitors for 1 hour, stimulated with bacteria followed by treatment with DEX or medium and analyzed by real time PCR.
(Real-time PCR tracks product formation cycle by cycle.)

Another experiment concerns hsp27 phosphorylation. Kind of experiment: Western blot of hsp27 phosphorylation as downstream read out for p38 MAPK activation by H. parainfluenzae. Type of experiment: cell-based, human. As to conditions: 10 μM inhibitor, 15 min H. para, bacteria to cell ratio 1:1, monocytes from asthma patients, FIG. 4D. Here is the method:
(§2) P38 mitogen activated protein kinase (MAPK) stimulation by bacteria. P38 MAPK activation in response to various concentrations of pathogenic and commensal bacteria as well as time course of p38 activation in response to these bacteria was determined. Cells were stimulated with 0.1 and 1 bacteria per cell, at kinetic time frames from 15 min to 3 h (monocytes), or after 3h of stimulation with bacteria (BAL macrophages). […] Protein concentration was determined by Bradford assay and cell lysates were analyzed for p-p38 MAPK expression by Western blot as described by us earlier (Zhang Y et al., J Immunol 2012, in press).
(§3) The effects of inhibitors on cellular response to corticosteroids. […] (Calbiochem, EMD Serono, Inc., Rockland, MA) (2 μM), the p38 inhibitor, SB203580 (10 μM) (Calbiochem) or the cocktail of the three MAPK inhibitors (SB203580, p38 inhibitor; PD98059, MEK1/ERK inhibitor (Invitrogen, Life Technologies, Grand Island, NY) and SP600125, JNK inhibitor (InVivogen, San Diego, CA), all at 10 μM) for 1 h prior to stimulation with bacteria and cellular response to corticosteroids was evaluated by real time PCR as described above. […]
For orientation: In western blotting, separated proteins are transferred to a membrane and probed.

The nature of experiment [3]: Clinical response to oral prednisone burst (FEV1 percent predicted). To be noted: for FEV1% change after Prednisone burst, (Mean ± SD): prednisone 20 mg by mouth twice daily for 7 days; for FEV1% change after Prednisone burst, (Mean ± SE): one week 40 mg/d oral prednisone. Type of experiment: in vivo, human.
From the text: as §1
Corticosteroid response of asthmatics was classified based on their prebronchodilator morning FEV1% predicted response to one week course of 40 mg/d oral prednisone.

The test system of another experiment is ERK phosphorylation. Description: Western blot of ERK phosphorylation as downstream read out for TAK1 activation by H. parainfluenzae. Type of experiment: cell-based, human. To be noted: 2 μM inhibitor, 15 min H. para, bacteria to cell ratio 1:1, monocytes from asthma patients, FIG. 4D. Here is the method:
as §2, §3

Each structure is given as a SMILES string. Entries after “also recorded” stand apart in the source; their conditions may differ.

For `CC(C)(C)NCC(O)c1ccc(O)c(CO)c1` (centres unmarked) [Albuterol, albuterol], the “FEV1% reversal with Albuterol, (Mean ± SD)” value in experiment [1] (CR asthma, n = 29, 180 μg albuterol inhaled) turned out to be 15.0 ± 9.4%; in experiment [1] (CS asthma, n = 10, 180 μg albuterol inhaled), 37.2 ± 24.7%; in experiment [1] (Normal controls, n = 12), 5.1 ± 2.4%. Further, the “FEV1% reversal with Albuterol, (Mean ± SE)” value in experiment [1] (SR asthma, n = 12) is 13.3 ± 2.1 %; in experiment [1] (SS asthma, n = 13), 41.1 ± 8.7%.
For `C[S+]([O-])c1ccc(-c2nc(-c3ccncc3)c(-c3ccc(F)cc3)[nH]2)cc1` (centres unmarked) [P38 MAPK inhibitor, SB203580], in experiment [2], the “cellular sensitivity to corticosteroids in vitro (MKP-1 mRNA induction by DEX) in the presence of H. parainfluenzae” value is given as “failed to restore”, the “MKP-1 mRNA induction by H. parainfluenzae” value is “reduced” and the “IL-8 mRNA induction by H. parainfluenzae” value was “reduced”. Besides, in the experiment with hsp27 phosphorylation, the “hsp27 phosphorylation by H. parainfluenzae” value is reported as “fully inhibited”.
For the compound `C[C@]12C=CC(=O)C=C1CC[C@@H]1[C@@H]2C(=O)C[C@@]2(C)[C@H]1CC[C@]2(O)C(=O)CO` [Prednisone, prednisone], the “FEV1% change after Prednisone burst, (Mean ± SD)” value was −0.2±5.9% in experiment [3] (CR asthma, n = 29) and 31.0±23.5% in experiment [3] (CS asthma, n = 10). The “FEV1% change after Prednisone burst, (Mean ± SE)” value in experiment [3] (SR asthma, n = 12) is reported as 0.8 ± 1.9 %; in experiment [3] (SS asthma, n = 13), 42.2 ± 10.0%.
As to `COc1cc(O)c2c(c1)/C=C/C[C@H](O)[C@H](O)C(=O)/C=C\C[C@H](C)OC2=O` [TAK1 inhibitor, (5Z)-7-Oxozeaenol], in experiment [2], the “cellular sensitivity to corticosteroids in vitro (MKP-1 mRNA induction by DEX) in the presence of H. parainfluenzae” value is “restoration of cellular sensitivity to corticosteroids; also recorded: steroid sensitive”, the “MKP-1 mRNA induction by H. parainfluenzae” value is listed as “significant inhibition” and the “IL-8 mRNA induction by H. parainfluenzae” value is reported as “significant inhibition”. For the same compound, in the experiment with ERK phosphorylation, the “ERK phosphorylation by H. parainfluenzae” value is “fully inhibited”.

These data come from patent US20250003969A1, “METHODS TO IDENTIFY AND TREAT SUBJECTS HAVING CORTICOSTEROID-RESISTANT INFLAMMATORY DISEASES” (priority 2013, published 2025).
